{"source": "the NIST ThermoML archive (doi:10.1016/j.fluid.2004.12.007)", "conditions": "Liquid; for mass density: 298.15 K, 101.33 kPa", "note": "± gives the expanded uncertainty stated by the source."}
{"smiles": "CC(C)OC(C)C", "note": "[diisopropyl ether]", "values": [{"measurement": "mass density", "value": "718.14 ± 0.95", "unit": "kg/m3"}, {"measurement": "vapor or sublimation pressure", "setting": "339.95 K", "value": "95.96 ± 0.8", "unit": "kPa"}, {"measurement": "vapor or sublimation pressure", "setting": "341.35 K", "value": "101.3 ± 0.8", "unit": "kPa"}]}
{"smiles": "CC(C)CC(C)(C)C", "note": "[2,2,4-trimethylpentane]", "values": [{"measurement": "mass density", "value": "687.72 ± 0.9", "unit": "kg/m3"}, {"measurement": "vapor or sublimation pressure", "setting": "370.45 K", "value": "95.96 ± 0.59", "unit": "kPa"}, {"measurement": "vapor or sublimation pressure", "setting": "372.45 K", "value": "101.3 ± 0.6", "unit": "kPa"}]}
{"smiles": "COC(C)(C)C", "note": "[2-methoxy-2-methylpropane]", "values": [{"measurement": "mass density", "value": "735.4 ± 0.97", "unit": "kg/m3"}, {"measurement": "vapor or sublimation pressure", "setting": "326.55 K", "value": "95.96 ± 0.64", "unit": "kPa"}, {"measurement": "vapor or sublimation pressure", "setting": "328.35 K", "value": "101.3 ± 0.6", "unit": "kPa"}]}
{"smiles": "COCOC", "note": "[dimethoxymethane]", "values": [{"measurement": "mass density", "value": "847.51 ± 1.1", "unit": "kg/m3"}, {"measurement": "vapor or sublimation pressure", "setting": "313.75 K", "value": "95.96 ± 0.75", "unit": "kPa"}, {"measurement": "vapor or sublimation pressure", "setting": "315.25 K", "value": "101.3 ± 0.8", "unit": "kPa"}]}
